According to ChEMBL document CHEMBL1201862, “PubChem BioAssay data set” (2004):
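Five compound concentrations were applied to cells in 96-well plates for 48 hours; endpoints were derived by simple linear interpolation of the resulting dose-response curve. GI50 is the concentration that inhibits growth by half.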 Calls of active or inactive are those of the source. Rule as the data show it: active = GI50 up to about 1.1 µM and inactive = higher.

Tests used:
Assay in all cases: growth of human tumour cells (NCI), 48 h
A549 = test system: A549
ACHN = test system: ACHN
CCRF-CEM = test system: CCRF-CEM
COLO 205 = test system: COLO 205
Hs-578T = test system: Hs-578T
IGROV-1 = test system: IGROV-1
M14 = test system: M14
MDA-N = test system: MDA-N
Malme-3M = test system: Malme-3M
NCI-H23 = test system: NCI-H23
OVCAR-3 = test system: OVCAR-3
RXF 393 = test system: RXF 393
SF-268 = test system: SF-268
SK-MEL-28 = test system: SK-MEL-28
SR = test system: SR
SW-620 = test system: SW-620
UACC-257 = test system: UACC-257
UACC-62 = test system: UACC-62
UO-31 = test system: UO-31
SNB-75 = test system: SNB-75

Measured: GI50

c1ccc(CCN2CCOCC2)nc1
inactive: A549 > 100 µM | ACHN > 100 µM | CCRF-CEM > 100 µM | COLO 205 > 100 µM | Hs-578T > 100 µM | IGROV-1 > 100 µM | M14 > 100 µM | MDA-N > 100 µM | Malme-3M > 100 µM | NCI-H23 > 100 µM | OVCAR-3 > 100 µM | RXF 393 > 100 µM | SF-268 > 100 µM | SK-MEL-28 > 100 µM | SR > 100 µM | SW-620 > 100 µM | UACC-257 > 100 µM | UACC-62 > 100 µM | UO-31 > 100 µM

CC(C)(/N=N/C(C)(C)C(=N)N)C(=N)N
inactive: A549 > 100 µM | ACHN > 100 µM | COLO 205 > 100 µM | Hs-578T > 100 µM | IGROV-1 > 100 µM | M14 > 100 µM | MDA-N > 100 µM | NCI-H23 > 100 µM | OVCAR-3 > 100 µM | RXF 393 > 100 µM | SF-268 > 100 µM | SK-MEL-28 > 100 µM | SNB-75 > 100 µM | SR > 100 µM | SW-620 > 100 µM | UACC-257 > 100 µM | UACC-62 > 100 µM | UO-31 > 100 µM

COc1c(C)c(C/C=C(\C)CCCC(C)CCCC(C)CCCC(C)C)c(OC)c2ccccc12 (stereo unspecified)
inactive: A549 > 100 µM | ACHN > 100 µM | CCRF-CEM > 100 µM | COLO 205 > 100 µM | Hs-578T > 100 µM | IGROV-1 > 100 µM | M14 > 100 µM | MDA-N > 100 µM | NCI-H23 > 100 µM | OVCAR-3 > 100 µM | RXF 393 > 100 µM | SF-268 > 100 µM | SNB-75 > 100 µM | SR > 100 µM | SW-620 > 100 µM | UACC-257 > 100 µM | UACC-62 > 100 µM | UO-31 > 100 µM

CN1C(=O)C(CC=O)(C(C)(C)C)c2ccccc21 (stereo unspecified)
inactive: A549 > 100 µM | ACHN 47.2 µM | CCRF-CEM 60 µM | COLO 205 > 100 µM | Hs-578T 56.6 µM | M14 > 100 µM | MDA-N 33.3 µM | NCI-H23 > 100 µM | OVCAR-3 > 100 µM | RXF 393 > 100 µM | SF-268 > 100 µM | SK-MEL-28 > 100 µM | SNB-75 99.5 µM | SR > 100 µM | SW-620 79.6 µM | UACC-257 > 100 µM | UACC-62 93.5 µM | UO-31 64 µM

O=[N+]([O-])C1CC/C(=N/O)c2nonc21 (stereo unspecified)
inactive: A549 > 10 µM | ACHN > 10 µM | CCRF-CEM > 10 µM | COLO 205 > 10 µM | Hs-578T > 10 µM | IGROV-1 > 10 µM | M14 > 10 µM | MDA-N > 10 µM | Malme-3M > 10 µM | NCI-H23 > 10 µM | OVCAR-3 > 10 µM | RXF 393 > 10 µM | SF-268 > 10 µM | SK-MEL-28 > 10 µM | SR > 10 µM | SW-620 > 10 µM | UACC-257 > 10 µM | UACC-62 > 10 µM | UO-31 > 10 µM

CC1(C)C2CC(=O)C1(C)C(OCc1ccccc1)C2 (stereo unspecified)
inactive: A549 74.3 µM | ACHN > 100 µM | CCRF-CEM 26.1 µM | COLO 205 29.6 µM | Hs-578T 22 µM | IGROV-1 > 100 µM | M14 24.8 µM | MDA-N 47.3 µM | Malme-3M 32.9 µM | NCI-H23 27.2 µM | OVCAR-3 62.7 µM | SF-268 > 100 µM | SK-MEL-28 94.2 µM | SNB-75 34.2 µM | SR 25.1 µM | SW-620 29.6 µM | UACC-257 74 µM | UACC-62 62.5 µM | UO-31 62.7 µM
